Measured values: US9420797B2, “Method for preparing biocidal aqueous compositions” (BROMINE COMPOUNDS LTD., priority 2012, dated 2016)

Tests used:
[1] = system: Pseudomonas aeruginosa (ATCC 15442) entrapped in alginate gel beads; assay: Biocidal activity against simulated biofilm (bacteria entrapped in alginate gel beads), surviving CFU; settings: contact time 24 hours, count at time 0 1.40E+07
[2] = system: Inoculum of bacteria (Activated sludge taken from Domestic Waste Water treatment Plant—Haifa); assay: Microbial efficacy (% kill) under different TOC loading, activated sludge bacteria, pour plate count on R2A agar; format: cell-based; settings: contact time 30 min, pH 7
From the text: Inoculum of bacteria (Activated sludge taken from Domestic Waste Water treatment Plant-Haifa). R2A agar for general counting. Tryptone, in amounts of either 0.025, or 0.119 or 0.239 g solid tryptone, was weighed and dissolved in 1 liter of buffer. Neutralization solution (NaHSO4). Chlorourea solution, prepared from aq. urea hydrochloride (consisting of 5.8% HCl and 38.2% urea, Wt %) and a 12.9% aq NaOCl as Cl2, Wt %); Urea, HCl:NaOCl 4:1:1 molar ratio. The biocidal efficacy of the antifouling composition at different organic loads of 0, 10, 30 and 50 ppm TOC, was examined under different biocidal concentrations (2.5, 5 and 10 ppm) at pH 7. 1) 1 ml of inoculum was added to tryptone solutions (placed in 3 erlenmeyer flasks, 100 ml each, with different concentrations of TOC-0, 10, 30 and 50 ppm). 2) 1 ml of each sample was inoculated on […] agar (pour plate method). The result stands for the bacteria count at zero time. 3) For each of the tryptone concentrations (0, 10, 30, 50 ppm TOC) an inoculum of bacteria (1 ml) and the appropriate biocide concentration were added. 4) After 30 and 60 min. of shaking (100 rpm), 1 ml of each sample was transferred to a tube filled with 9 ml of the neutralization solution. An aliquot of 1 ml was taken from this solution and added to another tube containing 9 ml of buffer solution. The solution was mixed under vortex. This operation was repeated 4 more times. 5) 1 ml from the two lowest dilutions was inoculated on a […] agar (by the pour plate method). 6) After the plates were incubated at 25° C. for 5-7 days, the bacteria count was recorded.

Structure (SMILES): OCl [NaOCl, sodium hypochlorite]
- survival of bacteria (CFU) ([1]; biocide 0.5 ppm as Cl2): 3.6E+06 CFU
- survival of bacteria (CFU) ([1]; biocide 1 ppm as Cl2): 2.53E+06 CFU
- survival of bacteria (CFU) ([1]; biocide 2.5 ppm as Cl2): 1.00E+00 CFU
- survival of bacteria (CFU) ([1]; biocide 5 ppm as Cl2): 1.00E+00 CFU
- % Kill ([2]; TOC 0 ppm, biocide 2.5 ppm as Cl2): 98.8%
- % Kill ([2]; TOC 0 ppm, biocide 5 ppm as Cl2): 99.6%
- % Kill ([2]; TOC 0 ppm, biocide 10 ppm as Cl2): 99.9%
- % Kill ([2]; TOC 10 ppm, biocide 2.5 ppm as Cl2): 37.7%
- % Kill ([2]; TOC 10 ppm, biocide 5 ppm as Cl2): 97.8%
- % Kill ([2]; TOC 10 ppm, biocide 10 ppm as Cl2): 99.5%
- % Kill ([2]; TOC 30 ppm, biocide 2.5 ppm as Cl2): 11.6%
- % Kill ([2]; TOC 30 ppm, biocide 5 ppm as Cl2): 78.2%
- % Kill ([2]; TOC 30 ppm, biocide 10 ppm as Cl2): 93.6%
- % Kill ([2]; TOC 50 ppm, biocide 2.5 ppm as Cl2): 24.1%
- % Kill ([2]; TOC 50 ppm, biocide 5 ppm as Cl2): 49.2%
- % Kill ([2]; TOC 50 ppm, biocide 10 ppm as Cl2): 91.7%
